Data taken from US11013780B2, “Methods of treating female infertility” (Myovant Sciences GmbH, priority 2016, dated 2021).
pEC50: −log10 of the molar value. Where two headings read alike, the source gives them in different places. Where a SMILES comes first, the peptide text is derived from it. [ ]: non-standard residue; d: D form. Arg(Me) = CNC(=N)NCCC[C@H](N)C(=O)O; Hyp = O=C(O)[C@@H]1C[C@@H](O)CN1; azaGly = NNC(=O)O

Legend:
dog KISS1R = target: T1, dog KISS1R (Canis lupus familiaris, UniProt A0A8I3S0V2); experiment: Intracellular Ca2+ mobilization (fluorometric imaging plate reader), dog KISS1R; assay type: cell-based
T1 construct: expressed in transfected cells; host or cells: Chinese hamster ovary dihydrofolate reductase negative cells
T1 sequence (A0A8I3S0V2 1-382): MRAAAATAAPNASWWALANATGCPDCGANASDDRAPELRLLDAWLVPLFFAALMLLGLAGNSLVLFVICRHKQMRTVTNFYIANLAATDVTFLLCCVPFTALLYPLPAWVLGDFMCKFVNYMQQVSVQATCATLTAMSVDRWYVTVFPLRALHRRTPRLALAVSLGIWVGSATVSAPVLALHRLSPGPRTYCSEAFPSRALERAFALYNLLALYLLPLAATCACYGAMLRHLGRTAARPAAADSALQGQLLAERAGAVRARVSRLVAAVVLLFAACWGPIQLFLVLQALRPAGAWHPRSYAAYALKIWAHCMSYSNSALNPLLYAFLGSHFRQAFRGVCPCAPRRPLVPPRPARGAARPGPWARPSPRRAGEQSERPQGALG
Description: The effects of API-MA on intracellular Ca^2+ mobilization in KISS1R-expressing recombinant cells were evaluated by performing the fluorometric imaging plate reader assay.

[1] = Pharmacokinetics in rats after SC and IV administration; conditions: rat, in vivo, rats; for AUC(0-t): read-out: AUC(0-24); for level at 5 min: read-out: C5min; for Cmax: read-out: Cmax
Description: The PK of API-MA was studied in rats after SC and IV administration.
The PK linearity of API-MA was also investigated in rats after IV administration. The plasma C5min and AUC(0-24) values increased dose-proportionally. […] The elimination T1/2 values were 0.4 hours at 0.01 and 0.1 mg/kg and 0.5 hours at 1 mg/kg. These findings indicate that the PK of API-FB was linear in rats after single IV administration over the dose range of 0.01 to 1 mg/kg. The greater than dose-proportional increase in the first-pass kinetics with SC administration would indicate nonlinear PK in rats after SC administration.

[2] = Pharmacokinetics in dogs after SC and IV administration; conditions: dog, in vivo, dogs; for AUC(0-t): read-out: AUC(0-24); for Cmax: read-out: Cmax; for bioavailability: read-out: BA (bioavailability)
Text: The PK of API-MA was studied in dogs after SC and IV administration.

[3] = Pharmacokinetics in monkeys after SC and IV administration; conditions: monkey, in vivo, monkeys; for AUC(0-t): read-out: AUC(0-24); for bioavailability: read-out: BA (bioavailability); for Cmax: read-out: Cmax
Text: The PK of API-MA was studied in monkeys after SC and IV administration.

[4] = Multiple-dose PK, SC bolus then continuous 13-day SC infusion, healthy European men; conditions: for Css / AUC(0-t) / Cmax: European men, geometric mean (% CV); for AUC(0-t): AUC (0-tlqc) (equal to AUC (0-24))
Description: Another study was a phase 1 clinical study of multiple-dose administration of API-MA. The study was conducted in France. It was a randomized, double-blind, placebo-controlled, parallel-group, ascending dose study of the safety, tolerability, plasma PK, and endocrine pharmacodynamic effects of API-MA administered as an SC bolus (0.1 mg) on day 1 followed by continuous SC infusion (i.e., 24 hr/day) from Day 2 to Day 14 (0.01, 0.1, 0.3, or 1.0 mg/day), which was expected to suppress testosterone.

[5] = Multiple-dose PK, 2-hour SC infusion once daily for 14 days, Japanese prostate cancer patients; assay type: in vivo, human; conditions: for half-life / Cmax / Tmax / AUC / Vd/F / AUC(0-inf) / MRT: male, human, in vivo; for AUC: read-out: AUC (0-tau); for Vd/F: read-out: Vz/F
Description: It was an open-label, ascending dose study of API-MA administered via 2-hour SC infusion once daily for 14 days that was expected to suppress testosterone in Japanese hormone-naïve prostate cancer patients. Six patients received API-MA at doses of 0.5 mg (3 patients) and 1.0 mg (3 patients) a day for 14 days.
To measure plasma concentrations of API-MA, blood specimens were collected at the following times: Day 1 (predose and 2, 4, 6, 10 hours postdose); days 2, 4, 6, 8, 10, and 12 (predose); day 14 (predose and 2, 4, 6, 10, 24, 48 hours postdose); day 21; and day 28. To measure urinary excretion of API-MA, urine specimens were collected at the following times: Day 1 (predose and 0 to 4, 4 to 8, 8 to 12, 12 to 24 hours postdose) and day 14 (0 to 4, 4 to 8, 8 to 12, 12 to 24 hours postdose).

[6] = IV 1 mg/kg, read-out: T½ γ (elimination) (converted)
[7] = SC 0.1 to 10 mg/kg, read-out: Tmax, range over the tested SC doses
[8] = bolus IV 1 mg/kg, read-out: Cmax (C5 min)
[9] = male, human, plasma, sc, 0.1 mg, SC bolus 0.1 mg on Day 1, dosing group 0.01 mg/day
[10] = male, human, plasma, sc, 0.1 mg, SC bolus 0.1 mg on Day 1, dosing group 0.1 mg/day
[11] = male, human, plasma, sc, 0.1 mg, SC bolus 0.1 mg on Day 1, dosing group 0.3 mg/day
[12] = male, human, plasma, sc, 0.1 mg, SC bolus 0.1 mg on Day 1, dosing group 1.0 mg/day
[13] = Japanese prostate cancer patients, 2-hour SC infusion 0.5 mg/day, Day 1, mean
[14] = Japanese prostate cancer patients, 2-hour SC infusion 0.5 mg/day, Day 14, mean
[15] = Japanese prostate cancer patients, 2-hour SC infusion 1.0 mg/day, Day 1, mean
[16] = Japanese prostate cancer patients, 2-hour SC infusion 1.0 mg/day, Day 14, mean
[17] = sc, 0.5 mg/day, Japanese prostate cancer patients, 2-hour SC infusion 0.5 mg/day, Day 1, mean
[18] = sc, 0.5 mg/day, Japanese prostate cancer patients, 2-hour SC infusion 0.5 mg/day, Day 14, mean
[19] = sc, 1 mg/day, Japanese prostate cancer patients, 2-hour SC infusion 1.0 mg/day, Day 1, mean
[20] = sc, 1 mg/day, Japanese prostate cancer patients, 2-hour SC infusion 1.0 mg/day, Day 14, mean

SMILES: CC(=O)O.CNC(=N)NCCC[C@H](NC(=O)[C@H](CC(C)C)NC(=O)NNC(=O)[C@H](Cc1ccccc1)NC(=O)[C@@H](NC(=O)[C@H](CC(N)=O)NC(=O)[C@@H]1C[C@@H](O)CN1C(=O)[C@@H](Cc1ccc(O)cc1)NC(C)=O)[C@@H](C)O)C(=O)N[C@@H](Cc1c[nH]c2ccccc12)C(N)=O [API-MA, 2-(N-Acetyl-D-tyrosyl-trans-4-hydroxy-L-prolyl-Lasparaginyl-L-threonyl-L-phenylalanyl)-hydrazinocarbonyl-L-leucyl-Nω-methyl-L-arginyl-L-tryptophanamide monoacetate] (Ac-[dY][Hyp]NTF[azaGly]L[Arg(Me)]W-NH2)
- pEC50 (dog KISS1R): 8.70
- Ratio of EC50 of API-MA to kisspeptin (45-54) (dog KISS1R; dog KISS1R): 1.2
- AUC(0-t) ([1]; iv, 0.01 mg/kg, IV 0.01 mg/kg, PK linearity study): 14 ng·h/mL
- AUC(0-t) ([1]; iv, 0.1 mg/kg, IV 0.1 mg/kg, PK linearity study): 140 ng·h/mL
- AUC(0-t) ([1]; iv, 1 mg/kg, IV 1 mg/kg, PK linearity study): 1390 ng·h/mL
- AUC(0-t) ([1]; iv, 1 mg/kg, IV 1 mg/kg): 1460 ng·h/mL
- AUC(0-t) ([1]; sc, 1 mg/kg, SC 1 mg/kg, mean ± SD (n = 5)): 804 ng·h/mL
- AUC(0-t) ([1]; sc, 10 mg/kg, SC 10 mg/kg, mean ± SD (n = 5)): 309 ng·h/mL
- level at 5 min ([1]; IV 0.01 mg/kg, PK linearity study): 24.1 ng/mL
- half-life ([1]; IV 0.01 mg/kg, PK linearity study, read-out: Elimination T1/2 (converted)): 0.4 h
- level at 5 min ([1]; IV 0.1 mg/kg, PK linearity study): 250 ng/mL
- half-life ([1]; IV 0.1 mg/kg, PK linearity study, read-out: Elimination T1/2 (converted)): 0.4 h
- level at 5 min ([1]; IV 1 mg/kg, PK linearity study): 2580 ng/mL
- Cmax at 5 min ([1]; IV 1 mg/kg, plasma concentration at 5 minutes, read-out: Cmax (C5 min)): 2670 ng/mL
- half-life ([1]; IV 1 mg/kg, read-out: T1/2 alpha phase (converted)): 0.5 h
- Cmax ([1]; SC 1 mg/kg, mean ± SD (n = 5)): 381 ng/mL
- bioavailability ([1]; SC 1 mg/kg, read-out: BA (bioavailability)): 55.3%
- Cmax ([1]; SC 10 mg/kg, mean ± SD (n = 5)): 285 ng/mL
- Tmax ([1]; SC, read-out: Tmax, range over all tested SC doses): 0.3 to 0.9 h
- AUC(0-t) ([2]; IV 1 mg/kg): 3090 ng·h/mL
- half-life [2, 6]: 3 h
- Cmax ([2]; SC 0.1 mg/kg, mean ± SD (n = 4)): 86.6 ng/mL
- AUC(0-t) ([2]; SC 0.1 mg/kg): 252 ng·h/mL
- bioavailability ([2]; SC 0.1 mg/kg): 81.5%
- AUC(0-t) ([2]; SC 1 mg/kg): 2600 ng·h/mL
- bioavailability ([2]; SC 1 mg/kg): 84%
- Cmax ([2]; SC 1 mg/kg): 883 ng/mL
- AUC(0-t) ([2]; SC 10 mg/kg): 28600 ng·h/mL
- bioavailability ([2]; SC 10 mg/kg): 92.7%
- Cmax ([2]; SC 10 mg/kg): 8840 ng/mL
- Tmax [2, 7]: 0.8 to 1 h
- Cmax at 5 min [2, 8]: 4250 ng/mL
- AUC(0-t) ([3]; IV 1 mg/kg): 3160 ng·h/mL
- half-life [3, 6]: 3.2 h
- AUC(0-t) ([3]; SC 0.1 mg/kg): 295 ng·h/mL
- bioavailability ([3]; SC 0.1 mg/kg): 94.9%
- Cmax ([3]; SC 0.1 mg/kg): 123 ng/mL
- AUC(0-t) ([3]; SC 1 mg/kg): 2790 ng·h/mL
- bioavailability ([3]; SC 1 mg/kg): 90.1%
- Cmax ([3]; SC 1 mg/kg): 1320 ng/mL
- AUC(0-t) ([3]; SC 10 mg/kg): 31600 ng·h/mL
- bioavailability ([3]; SC 10 mg/kg): 102%
- Cmax ([3]; SC 10 mg/kg): 12100 ng/mL
- Tmax [3, 7]: 0.3 to 0.4 h
- Cmax at 5 min [3, 8]: 5030 ng/mL
- half-life ([3]; multi-exponential decline after reaching Cmax, read-out: Mean terminal elimination T1/2 (converted)): ~2.6 h
- Css ([4]; continuous 13-day SC INF 0.01 mg/day (Days 2-14)): 20.2 (34) pg/mL
- Css ([4]; continuous 13-day SC INF 0.1 mg/day (Days 2-14)): 226 (17) pg/mL
- Css ([4]; continuous 13-day SC INF 0.3 mg/day (Days 2-14)): 708 (19) pg/mL
- Css ([4]; continuous 13-day SC INF 1.0 mg/day (Days 2-14)): 2280 (16) pg/mL
- CL/F ([4]; male, human, plasma, sc, 0.01 mg/day): 343 mL/min
- Tmax ([4]; male, human, plasma, sc, 0.1 mg): 0.5 h
- AUC(0-t) [4, 9]: 5.08 ng·h/mL
- AUC(0-t) [4, 10]: 4.28 ng·h/mL
- AUC(0-t) [4, 11]: 4.68 ng·h/mL
- AUC(0-t) [4, 12]: 4.05 ng·h/mL
- Cmax [4, 9]: 1.87 ng/mL
- Cmax [4, 10]: 1.59 ng/mL
- Cmax [4, 11]: 1.65 ng/mL
- Cmax [4, 12]: 1.29 ng/mL
- CL/F ([4]; male, human, plasma, sc, 0.1 mg/day): 308 mL/min
- CL/F ([4]; male, human, plasma, sc, 0.3 mg/day): 295 mL/min
- CL/F ([4]; male, human, plasma, sc, 1 mg/day): 305 mL/min
- CL/F [5, 13]: 13.4 L/h
- λz [5, 13]: 0.200 h⁻¹
- CL/F [5, 14]: 12.6 L/h
- λz [5, 14]: 0.198 h⁻¹
- CL/F [5, 15]: 13.6 L/h
- λz [5, 15]: 0.221 h⁻¹
- CL/F [5, 16]: 13.4 L/h
- λz [5, 16]: 0.205 h⁻¹
- half-life ([5]; days 1 and 14, both doses (0.5 and 1.0 mg/day), read-out: Mean T1/2): 3 to 4 h
- Cmax [5, 17]: 8.12 ng/mL
- Tmax [5, 17]: 2.11 h
- AUC [5, 17]: 36.5 ng·h/mL
- half-life ([5]; sc, 0.5 mg/day, Japanese prostate cancer patients, 2-hour SC infusion 0.5 mg/day, Day 1, mean, read-out: T1/2 (converted)): 3.48 h
- Vd/F [5, 17]: 66.9 L
- Cmax [5, 18]: 8.13 ng/mL
- Tmax [5, 18]: 2.08 h
- AUC [5, 18]: 39.1 ng·h/mL
- half-life ([5]; sc, 0.5 mg/day, Japanese prostate cancer patients, 2-hour SC infusion 0.5 mg/day, Day 14, mean, read-out: T1/2 (converted)): 3.5 h
- Vd/F [5, 18]: 63.5 L
- Cmax [5, 19]: 16 ng/mL
- Tmax [5, 19]: 2.11 h
- AUC [5, 19]: 70.2 ng·h/mL
- half-life ([5]; sc, 1 mg/day, Japanese prostate cancer patients, 2-hour SC infusion 1.0 mg/day, Day 1, mean, read-out: T1/2 (converted)): 3.15 h
- Vd/F [5, 19]: 61.6 L
- Cmax [5, 20]: 15.5 ng/mL
- Tmax [5, 20]: 2.11 h
- AUC [5, 20]: 71.2 ng·h/mL
- half-life ([5]; sc, 1 mg/day, Japanese prostate cancer patients, 2-hour SC infusion 1.0 mg/day, Day 14, mean, read-out: T1/2 (converted)): 3.38 h
- Vd/F [5, 20]: 65.7 L
- AUC(0-inf) ([5]; 0.5 mg/day, Day 1, mean): 36.8 ng·h/mL
- MRT ([5]; 0.5 mg/day, Day 1, mean): 4.78 h
- AUC(0-inf) ([5]; 1.0 mg/day, Day 1, mean): 70.6 ng·h/mL
- MRT ([5]; 1.0 mg/day, Day 1, mean): 4.64 h
